ChEMBL document CHEMBL3507680, “University of Dundee, Gates Library screen for HepG2 cell viability”

Assay: Human HepG2 cell viability assay in 384 well format
Assay type: toxicity, cell-based
Design: dose 125 nL, time 70.5 hour; concentration not given beside the values
Conditions: HepG2 cells, read-out: Inhibition

| SMILES | cytotoxicity at 70.5 h [%] |
| --- | --- |
| Cc1cc(CN2CCN(C(=O)Cc3ccccc3F)CC2)on1 | -14 |
| O=C(CCCc1cn[nH]c1)N1C[C@@H](CN2CCCC2)C[C@H](CO)C1 | -6.82 |
| CN1CCC(c2cc(CCO)ncn2)C1 (stereo not drawn) | 1.56 |
| c1cnc(N2CCC(NCc3cnc(C4CCC4)s3)CC2)nc1 | -11.5 |
| Cc1n[nH]c(C)c1C1COCCN1c1ncnc2sccc12 (stereo not drawn) | -13 |
| CN(Cc1ccncc1)C1CC2(CCN(c3ncccn3)CC2)C1 | -3.37 |
| N#CC1COCCN1C(=O)c1ccc2[nH]ccc2c1 (stereo not drawn) | 0.401 |
| COc1ccc(-c2cc(C(=O)N3N=C(C)CC3(O)C(F)(F)F)[nH]n2)cc1 (stereo not drawn) | 12.4 |
| O=c1c2cccnc2cnn1CC(O)c1ccc(Br)cc1 (stereo not drawn) | 12 |
| CN(C)CCCN(C)c1nccc(N2CCN[C@H]3CS(=O)(=O)C[C@H]32)n1 | 23.2 |
| CC(O)CN1CCN(Cc2coc(-c3ccccc3Cl)n2)CC1 (stereo not drawn) | -4.11 |
| CC1CCN(C[C@H]2CN3CC[C@H]2C[C@@H]3CNC(=O)Nc2ccsc2)CC1 | 10.5 |
| CNC(=O)c1cc2c(nc1N(C)C)CCN(S(=O)(=O)N(C)C)CC2 | 4.98 |
| Cc1cc(CN(C)C(=O)C(c2ccccc2F)N(C)C)ccn1 (stereo not drawn) | -7.87 |
| COc1ccc(C(C)NC(=O)C2CCN(S(C)(=O)=O)CC2)cc1C (stereo not drawn) | -4.77 |
| CN(CCc1ccc2c(c1)CCO2)CC1CCS(=O)(=O)C1 (stereo not drawn) | -9.73 |
| CCN(CC1COc2ccccc2O1)C(=O)NCCCn1cncn1 (stereo not drawn) | -10.8 |
| COc1ccc(-c2nc(CCNC(=O)NCC3CCOC3)co2)cc1 (stereo not drawn) | -11.8 |
| COCCCNC(=O)Cn1c(C)cc(=O)n2nc(-c3cccs3)nc12 | -7.89 |
| O=C(c1cnccn1)N1CCOC2(CCCN(c3ncccc3F)C2)C1 (stereo not drawn) | -16.1 |
| COCC1CN(Cc2ccsc2)Cc2nn(C)cc21 (stereo not drawn) | 16.3 |
| COc1cc(NC(=O)c2cccc(N(C)C)c2)cc(OC)c1 | -7.19 |
| CCOc1cc(CNC(=O)N2CCC(Cc3cnn(C)c3)C2)ccn1 (stereo not drawn) | -10.6 |

| SMILES | cytotoxicity at 70.5 h [%] |
| --- | --- |
| Cc1nc(C2CCN(S(=O)(=O)c3ccc4c(c3)CCO4)CC2)n[nH]1 | 0.662 |
| CC(NC(=O)c1cccc(CCC(C)(C)O)c1)c1nnc(N)s1 (stereo not drawn) | 30.7 |
| COc1ccc2cc(CNc3c(C)nn(C(C)C)c3C)ccc2c1 | -0.974 |
| Cc1ccc(CNC(=O)c2oc3ccccc3c2CN(C)C)n1C | -6.83 |
| O=C(Nc1cccnc1)N1CCC(n2ccc(C(F)(F)F)n2)CC1 | -3.71 |
| Cc1nnc(N2C[C@H](C(=O)NCc3ccco3)[C@@H]3CCO[C@@H]3C2)s1 | -1.66 |
| c1cc(CNc2ncc(-c3cnccn3)c([C@@H]3CCCO3)n2)ccn1 | -5.57 |
| CN(C)C(=O)c1cnc2n1CCN(Cc1ccc3c(c1)OCO3)C2 | -7.97 |
| O=C1NCCCCC1Sc1ccc(F)cc1F (stereo not drawn) | 7.77 |
| COc1ccccc1N1CCN(Cc2nccc(OC)c2OC)CC1=O | 7.74 |
| O=C(O)CCn1ccc2c(nnc3c(-c4ccc(F)cc4)cnn32)c1=O | -24.9 |
| COCCn1ccc2c(NC(=O)c3n[nH]c4c3CCCC4)cccc21 | 7.53 |
| CCO[C@H]1C[C@@H](O)C12CCN(C(=O)CN1CCCCCC1=O)CC2 | 6.65 |
| Cc1cc(S(=O)(=O)N2CCc3ccc(F)cc32)cc(C(=O)O)c1C | 6.28 |
| Cc1noc(C)c1CCNc1nccc(CCC(F)(F)F)n1 | -8.75 |
| Cn1nnc(NCc2ccccc2OCc2ccc(Cl)cc2)n1 | 29.2 |
| Cc1ccoc1C(=O)N1CCC(n2cc(-c3ccsc3)nn2)CC1 | -12.5 |
| CCCc1nc(N2CCCN(c3ncccn3)CC2)c2cnn(C)c2n1 | 4.78 |
| O=C(c1ccc2c(c1)OCO2)N1CCN2C(=O)NC[C@H]2C1 | -7.42 |
| COc1ncccc1CN1C[C@@H]2CN(c3ncccn3)C[C@@H]2C1 | 18.1 |
| Cc1cnn(CCC(=O)NCc2ccc(N(C)C)c(C)c2)c1 | -5.29 |
| COc1cccnc1NC(=O)c1ccc(COCC(F)(F)F)cc1 | -8.83 |
| CC(C)NC(=O)N(Cc1cc(O)nc2ccccc12)C(C)C | -7.39 |

| SMILES | cytotoxicity at 70.5 h [%] |
| --- | --- |
| Cc1ccc(CN2C[C@H](NC(=O)c3nccn3C)[C@H]3OCCC[C@H]32)o1 | 18.3 |
| O=C(Cc1ccccc1Cl)NCCN1CCC(c2cccs2)CC1 | 1.31 |
| Cc1cccc(CNC[C@H]2Cn3ccnc3CO2)n1 | -1.57 |
| Cc1cccc(CN2C[C@@H]3COC[C@]3(CNC(=O)C3CC3)C2)c1 | -9.63 |
| CC(C)C(C)NC(=O)Nc1ccc(CS(=O)(=O)C(C)C)cc1 (stereo not drawn) | -12.6 |
| COC(=O)c1sccc1S(=O)(=O)NCCC(O)c1ccoc1 (stereo not drawn) | -0.756 |
| Cc1nn(C)c(C)c1C(=O)NN1CCOCC1 | -6.78 |
| Cc1ncnc2c1CCN(C(=O)c1ccsc1)CC2 | 7.97 |
| O=S1(=O)COCCN1Cc1ccc(F)c(C(F)(F)F)c1 | -10.2 |
| Cc1nc(-c2nnc(SCC(=O)O)n2C(C)c2ccccc2)co1 (stereo not drawn) | -10 |
| Fc1cccc(Cl)c1CNCCCOc1ccccn1 | -3.63 |
| CC(=O)N1CCC(Cc2ccc(-c3ccnn3C)nc2)CC1 | -7.13 |
| O=C(CC1=CSC2=NCCCN12)N1CCCCC1c1cccc(F)c1 (stereo not drawn) | 20.1 |
| Cc1cnc(NCC(C)(C)N2CCOCC2)nc1 | -4.82 |
| Cn1nnn(-c2ccc(NS(=O)(=O)c3ccc(Br)cc3)cc2)c1=O | -2.26 |
| O=C1CCC(=O)N1c1nn(Cc2ccccc2Cl)cc1Cl | -0.484 |
| CN1CCC(c2nnc3n2CCN(S(=O)(=O)c2ccccc2Cl)C3)CC1 | -5.89 |
| CC(C)OCCN1CCc2cncnc2C1 | 4.2 |
| CC(=O)N1CCC(Cc2cnc(-c3c(C)n[nH]c3C)cn2)C1 (stereo not drawn) | -13.1 |
| O=C(O)c1cc(-c2ccoc2)cc(S(=O)(=O)NCc2ccccn2)c1 | -8.18 |
| Cn1nc(C2CCCN(C(=O)Cc3ccsc3)C2)c2nccnc21 (stereo not drawn) | -9.48 |
| O=C(c1cnccn1)N1CCC(CN2CCOCC2)CC1 | -7.46 |
| c1cncc(N2CCOC3(CCCN(c4nncs4)C3)C2)c1 (stereo not drawn) | -7.3 |

| SMILES | cytotoxicity at 70.5 h [%] |
| --- | --- |
| CC(NC(=O)c1nc(=O)[nH][nH]1)c1ccc(OCC2CC2)c(F)c1 (stereo not drawn) | 29.1 |
| Cc1ccc(-c2nc(CN3CCN(CCO)CC3)co2)cc1 | -9.54 |
| CC(=O)NC1CCN(c2nc(N(C)C)nc3c2CCCC3)CC1 | -1.98 |
| O=C(c1ccoc1)N1CC[C@@H]2O[C@@H](COCc3ccccn3)CC[C@@H]21 | -3.1 |
| Cc1ccc(CNC(C)c2nnc3n2CCCC3)o1 (stereo not drawn) | -8.48 |
| CC(=O)c1c(C)nn(S(=O)(=O)c2ccc(Cl)cc2)c1C | 3.92 |
| CCc1noc(C(C)N(C)CC(=O)Nc2ccc(Br)cc2C)n1 (stereo not drawn) | -96.5 |
| Cc1ccccc1C(=O)N1CCOC(c2ncc(CN(C)C)[nH]2)C1 (stereo not drawn) | -6.83 |
| c1ccc(-c2nnc(CN3CCCC3Cn3cncn3)o2)cc1 (stereo not drawn) | -0.362 |
| CN1C(=O)CCC12CCCN(C(=O)c1ccoc1)C2 (stereo not drawn) | -1.96 |
| COC(=O)c1cccc(CNC(=O)CCC(F)(F)F)c1 | -3.83 |
| Fc1cccc(-c2nnn3c2COC(CNCc2ccsc2)C3)c1 (stereo not drawn) | 0.277 |
| CCC(CC)NC(=O)c1cccnc1-n1cccn1 | 18 |
| Cc1ccc(NC2CCN(C(=O)CCOCC(F)(F)F)CC2)nn1 | -2.83 |
| Cc1cnn(CCNCC(=O)Nc2ccc(Cl)cn2)c1 | -0.0591 |
| N#Cc1ccc(N2CCN(c3cnccn3)CC2)cc1C(F)(F)F | 24.7 |
| CNC(=O)NC(=O)CN1CCc2c(Br)ccc(F)c2C1 | -0.281 |
| COc1cc(CNCC2CNc3ccnn3C2)ccn1 (stereo not drawn) | -3.41 |
| Cc1ccc2c(n1)N(CC1CC1)CCN(Cc1ccco1)C2 | 1.82 |
| Cc1ccc(CN2C[C@H](OCC3CCOCC3)[C@H]3COC[C@H]32)o1 | 17 |
| CC(=O)NCc1ccc(C(=O)N2CCCC2c2c(C)nn(C)c2C)o1 (stereo not drawn) | -9.03 |
| Cn1nc2c(cc1=O)CN(Cc1nnc(-c3ccco3)o1)CC2 | -3.38 |
| Cc1nc(-c2cc(C(=O)N3CCCN(C)CC3)c3ccccn23)cn1C | -2.18 |

| SMILES | cytotoxicity at 70.5 h [%] |
| --- | --- |
| Cc1cc(C(=O)N2CCN(Cn3cc(Cl)cn3)CC2)c(C)o1 | -5.19 |
| COC(=O)c1cc(NC(=O)NCC2CCS(=O)(=O)C2)ccc1Cl (stereo not drawn) | -0.58 |
| CO[C@H]1C[C@@H](O)C12CCN(C(=O)CCSCc1ccc(F)cc1)CC2 | -18.7 |
| CCN(Cc1cnn(C)c1)C[C@H]1CC[C@@H](Cc2ccc(C)nc2)O1 | -16.5 |
| CCC(=O)N1CCCCC1c1nc(CN(C)C(C)=O)cc(N(C)C)n1 (stereo not drawn) | -1.37 |
| CC(C)c1nsc(NC2CC(=O)N(C(C)(C)C)C2)n1 (stereo not drawn) | -8.61 |
| Cc1cc(C(=O)Nc2nc3c(s2)CN(S(=O)(=O)C2CC2)CC3)c(C)o1 | 4.31 |
| Cc1ccc(F)cc1C(=O)NCc1ccc(C(=O)O)o1 | 7.02 |
| Cc1cnc(C(=O)NCc2ccc3c(c2)CCCN3C)cn1 | -4.01 |
| Cc1noc(C)c1-c1nc(NCCN(C)C)ncc1-c1cnccn1 | -6.59 |
| CCc1cccc(C)c1NC(=O)NCCCN(CC)S(C)(=O)=O | -3.01 |
| CCCc1nc(CN2CCOC(Cn3cncn3)C2)no1 (stereo not drawn) | 18.1 |
| CN(CC(=O)NC1CC1)C(=O)c1csc(Br)c1 | -8.41 |
| CCc1ccc(CN2CC[C@H]3[C@H]2CC(=O)N3Cc2cccc(C)n2)o1 | -7.64 |
| CCc1oc(C(=O)NC(C)Cc2cnccn2)cc1CN1CCCC1 (stereo not drawn) | -14.2 |
| CCN1CCN(Cc2nc(Cc3ccccc3)n[nH]2)CC1 | -5.11 |
| Cc1ccc(CNC(=O)NCc2nccn2C)c(OC(C)(C)C)c1 | -2.56 |
| Cc1cccc(N(C)Cc2cc(=O)n3oc(C)cc3n2)c1 | 3.47 |
| COc1cc(CN(C(=O)Nc2cccnc2OC)C2CC2)ccc1O | -19.7 |
| Cc1ccc2c(c1)cc(CN1CC[C@](C)(O)[C@H](C)C1)n2C | -0.93 |
| Cc1nc2c(c(=O)n1C)CN(C(=O)C1CCCN(CC(N)=O)C1)C2 (stereo not drawn) | 8.71 |
